Eight molecules from patent publication US3978130A, “1-Cyclopropyl-1-phenyl-ω-amino-1-alkanols” (A. H. Robins Company, Incorporated, priority 1974, dated 1976) can be followed below.

Counter-ions that a name gives are not always drawn.

A word on the ED50: it is the dose that gives a 50% effect, or the effect in half of the subjects. A low value points to an effect at a small dose.

For this test, the system named is depressant effects induced in mice by tetrabenazine. As to the kind of experiment: Blocking of the depressant effects induced in mice by intravenous tetrabenazine (modified Englehardt procedure). Particulars: Mus musculus, IP. It counts as in vivo. As for the experimental part:
The activity of the compounds was determined by their effectiveness in blocking the depressant effects which are induced in mice by the intravenous administration of 2-oxo-3-isobutyl-9,10-dimethoxy-1,2,3,4,6,7-hexahydro-11bh-benzo[a] quinolizine (tetrabenazine). The procedure used was a modification of Englehardt, E. L. et al, J. Med. Chem. 11 (2), 325(1968). The ED50 values of the compounds are given in Table I; the compounds of Examples 3, 5, 7 and 8 are the preferred compounds.
As for `CN(C)CCC(O)(c1ccccc1)C1CC1` (centres unmarked) [Example 1, 1-Cyclopropyl-3-dimethylamino-1-phenyl-1-propanol Hydrochloride], the 50% effective dose (ED50) is 10 mg/kg. In the case of `CN(C)CCCC(O)(c1ccccc1)C1CC1` (centres unmarked) [Example 2, 1-Cyclopropyl-4-dimethylamino-1-phenyl-1-butanol Hydrochloride], the 50% effect level (ED50) was put at a dose of 12.5 mg/kg.

`CN(C)CCC(O)(c1cccc(Cl)c1)C1CC1` (centres unmarked) [Example 3, 1-Cyclopropyl-3-dimethylamino-1-(3-chlorophenyl)-1-propanol Hydrochloride] showed an ED50 of 6.4 mg/kg. For `COc1ccc(C(O)(CCN(C)C)C2CC2)cc1` (centres unmarked) [Example 4, 1-Cyclopropyl-3-dimethylamino-1-(4-methoxyphenyl)-1-propanol Hydrobromide], the ED50 turned out to be 7.8 mg/kg. On to `CN(C)CCC(O)(c1cccc(C(F)(F)F)c1)C1CC1` (centres unmarked) [Example 5, 1-Cyclopropyl-3-dimethylamino-1-(3-trifluoromethylphenyl)-1-propanol Hydrochloride], for which it took a dose of 2.5 mg/kg to reach the 50% effect level (ED50). `CN(C)CCC(O)(c1ccc(C(F)(F)F)cc1)C1CC1` (centres unmarked) [Example 6, 1-Cyclopropyl-3-dimethylamino-1-(4-trifluoromethylphenyl)-1-propanol Hydrochloride] came in with an ED50 of 12 mg/kg. This ED50 is about 4.8-fold higher than that of the molecule before. As for `CCN(CC)CCC(O)(c1cccc(C(F)(F)F)c1)C1CC1` (centres unmarked) [Example 7, 1-Cyclopropyl-3-diethylamino-1-(3-trifluoromethylphenyl)-1-propanol Hydrochloride], it took a dose of 4.2 mg/kg to reach the 50% effect level (ED50). Regarding `CNCCC(O)(c1cccc(C(F)(F)F)c1)C1CC1` (centres unmarked) [Example 8, 1-Cyclopropyl-3-methylamino-1-(3-trifluoromethylphenyl)-1-propanol], the 50% effect level (ED50) was put at a dose of 4.6 mg/kg.
